Laboratory results reported in US20240067693A1, “POLYPEPTIDES AND USES THEREOF” (MEDIMMUNE LIMITED, priority 2020, published 2024).
Numbered stars: 1 amine (or outer) side, 2 acyl side, 3 side chain; on linkers, the order of the positions; unused ones are H or OH. Bridge positions count the residues as written; N and C are the ends. Square brackets hold non-standard residues; d marks the D form. Side chains are listed from the residue outwards. Peptide text beside a SMILES is read from it. * marks the point of attachment. C18 diacid = O=C(O)CCCCCCCCCCCCCCCCC(=O)*; γGlu = O=C(O)[C@H](CCC(=O)[*:2])N[*:1]; Aib = CC(C)(N)C(=O)O

Columns and labels:
[1] = molecular target: T1, human amylin receptor (calcitonin receptor co-expressed with receptor activity modifying protein, RAMP3) (hAMYR3) (Homo sapiens, UniProt O60896+P30988); assay: cAMP production in 1321N1 cells with stable recombinant expression of human amylin receptor (hAMYR3); format: cell-based; conditions: for Ratio (selectivity hAMYR vs hCTR, ratio of EC50 values at the two receptors): EC50 hCTR / EC50 hAMYR3; for EC50: cAMP, 1321N1 cells, assay buffer with 0.1% BSA, read-out: EC50 (pM) hAMYR3
T1 construct: expressed in transfected cells
T1 sequence (P30988 25-474): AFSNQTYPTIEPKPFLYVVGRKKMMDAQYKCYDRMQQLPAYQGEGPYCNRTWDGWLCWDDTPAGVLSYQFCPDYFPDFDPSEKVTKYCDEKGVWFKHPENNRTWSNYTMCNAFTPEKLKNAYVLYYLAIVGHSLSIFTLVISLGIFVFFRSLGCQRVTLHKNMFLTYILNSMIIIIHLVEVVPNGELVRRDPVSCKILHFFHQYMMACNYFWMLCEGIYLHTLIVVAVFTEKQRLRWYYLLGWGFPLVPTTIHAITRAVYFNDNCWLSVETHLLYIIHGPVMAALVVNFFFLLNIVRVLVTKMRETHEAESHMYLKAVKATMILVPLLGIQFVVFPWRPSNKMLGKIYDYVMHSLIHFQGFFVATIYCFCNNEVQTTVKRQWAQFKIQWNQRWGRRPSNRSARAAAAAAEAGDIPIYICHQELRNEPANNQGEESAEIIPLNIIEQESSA
T1 sequence (O60896 24-148 partner): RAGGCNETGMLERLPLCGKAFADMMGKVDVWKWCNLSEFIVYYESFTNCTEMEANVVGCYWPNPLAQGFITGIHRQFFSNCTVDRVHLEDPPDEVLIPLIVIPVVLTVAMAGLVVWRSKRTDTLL
Outline: (§1)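 Thawed cells in HBSS/0.1% BSA/25 mM HEPES pH 7.4 with 0.5 mM IBMX were incubated with peptides 30 min at room temperature; cAMP read by HTRF. EC50 from 4-parameter fit of % activation relative to maximal amylin or calcitonin effect.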

[2] = molecular target: T2, human calcitonin receptor (hCTR) (Homo sapiens, UniProt P30988); assay: cAMP production in 1321N1 cells with stable recombinant expression of human calcitonin receptor (hCTR); format: cell-based; conditions: cAMP, 1321N1 cells, assay buffer with 0.1% BSA; read-out: EC50 (pM) hCTR
T2 construct: expressed in transfected cells
T2 sequence (P30988 25-474): T1 sequence (P30988 25-474)
Outline: as §1

Ratio (selectivity hAMYR vs hCTR, ratio of EC50 values at the two receptors) [1]	EC50 [1] [pM]	EC50 [2] [pM]	SMILES
0.2	7590	1510	CC[C@H](C)[C@H](NC(=O)[C@@H]1CCCN1C(=O)CNC(=O)[C@H](Cc1ccccc1)NC(=O)[C@H](CC(N)=O)NC(=O)C(C)(C)NC(=O)[C@H](CO)NC(=O)[C@H](CO)NC(=O)[C@H](Cc1c[nH]cn1)NC(=O)[C@H](CO)NC(=O)[C@H](CC(C)C)NC(=O)[C@H](Cc1ccccc1)NC(=O)[C@H](CC(N)=O)NC(=O)[C@H](C)NC(=O)[C@H](CC(C)C)NC(=O)[C@H](CCCNC(=N)N)NC(=O)[C@H](CCC(N)=O)NC(=O)[C@@H](NC(=O)[C@H](C)NC(=O)[C@@H]1CSSC[C@H](NC(=O)[C@H](CCCCN)NC(=O)[C@@H](N)CCCCNC(=O)CC[C@H](NC(=O)CCCCCCCCCCCCCCCCC(=O)O)C(=O)O)C(=O)N[C@@H](CC(N)=O)C(=O)N[C@@H]([C@@H](C)O)C(=O)N[C@@H](C)C(=O)N[C@@H]([C@@H](C)O)C(=O)N1)[C@@H](C)O)C(=O)N[C@@H](CC(C)C)C(=O)N1CCC[C@H]1C(=O)N1CCC[C@H]1C(=O)N[C@H](C(=O)N[C@@H](CC(N)=O)C(=O)N[C@H](C(=O)N1CCC[C@H]1C(=O)N[C@@H](CO)C(=O)N[C@@H](CC(N)=O)C(=O)N[C@H](C(=O)N[C@@H](Cc1ccc(O)cc1)C(N)=O)[C@@H](C)O)C(C)C)[C@@H](C)O [Peptide 54, K(γE-C18diacid)K[CNTATC]ATQRLANFLSHSS(Aib)NFGPILPPTNVPSNTY-amide] (H-K([γGlu-C18 diacid])KCNTATCATQRLANFLSHSS[Aib]NFGPILPPTNVPSNTY-NH2; disulfide 3-8; N-terminus assumed)
3	678	1870	CC[C@H](C)[C@H](NC(=O)[C@@H]1CCCN1C(=O)CNC(=O)[C@H](Cc1ccccc1)NC(=O)[C@H](CC(N)=O)NC(=O)C(C)(C)NC(=O)[C@H](CO)NC(=O)[C@H](CO)NC(=O)[C@H](Cc1c[nH]cn1)NC(=O)[C@H](CO)NC(=O)[C@H](CC(C)C)NC(=O)[C@H](Cc1ccccc1)NC(=O)[C@H](CC(N)=O)NC(=O)[C@H](C)NC(=O)[C@H](CC(C)C)NC(=O)[C@H](CCCNC(=N)N)NC(=O)[C@H](CCC(N)=O)NC(=O)[C@@H](NC(=O)[C@H](C)NC(=O)[C@@H]1CSSC[C@H](NC(=O)[C@H](CCCCN)NC(=O)[C@@H](N)CCCCNC(=O)CC[C@H](NC(=O)CCCCCCCCCCCCCCCCC(=O)O)C(=O)O)C(=O)N[C@@H](CC(N)=O)C(=O)N[C@@H]([C@@H](C)O)C(=O)N[C@@H](C)C(=O)N[C@@H]([C@@H](C)O)C(=O)N1)[C@@H](C)O)C(=O)N[C@@H](CC(C)C)C(=O)N1CCC[C@H]1C(=O)N1CCC[C@H]1C(=O)N[C@H](C(=O)N[C@@H](CC(N)=O)C(=O)N[C@H](C(=O)NCC(=O)N[C@@H](CO)C(=O)N1CCC[C@H]1C(=O)N[C@H](C(=O)N[C@@H](Cc1ccc(O)cc1)C(N)=O)[C@@H](C)O)C(C)C)[C@@H](C)O [Peptide 55, K(γE-C18diacid)K[CNTATC]ATQRLANFLSHSS(Aib)NFGPILPPTNVGSPTY-amide] (H-K([γGlu-C18 diacid])KCNTATCATQRLANFLSHSS[Aib]NFGPILPPTNVGSPTY-NH2; disulfide 3-8)
7	70	493	CC[C@H](C)[C@H](NC(=O)[C@@H]1CCCN1C(=O)CNC(=O)[C@H](Cc1ccccc1)NC(=O)[C@H](CC(N)=O)NC(=O)C(C)(C)NC(=O)[C@H](CO)NC(=O)[C@H](CO)NC(=O)[C@H](Cc1c[nH]cn1)NC(=O)[C@@H](NC(=O)[C@H](CC(C)C)NC(=O)[C@H](Cc1ccccc1)NC(=O)[C@H](CC(N)=O)NC(=O)[C@H](C)NC(=O)[C@H](CC(C)C)NC(=O)[C@H](CCCNC(=N)N)NC(=O)[C@H](CCC(N)=O)NC(=O)[C@@H](NC(=O)[C@H](C)NC(=O)[C@@H]1CSSC[C@H](NC(=O)[C@@H](N)CCCCNC(=O)CC[C@H](NC(=O)CCCCCCCCCCCCCCCCC(=O)O)C(=O)O)C(=O)N[C@@H](CC(N)=O)C(=O)N[C@@H]([C@@H](C)O)C(=O)N[C@@H](C)C(=O)N[C@@H]([C@@H](C)O)C(=O)N1)[C@@H](C)O)C(C)C)C(=O)N[C@@H](CC(C)C)C(=O)N1CCC[C@H]1C(=O)N1CCC[C@H]1C(=O)N[C@H](C(=O)N[C@@H](CC(N)=O)C(=O)N[C@H](C(=O)NCC(=O)N[C@@H](CO)C(=O)N[C@@H](CC(N)=O)C(=O)N[C@H](C(=O)N[C@@H](Cc1ccc(O)cc1)C(N)=O)[C@@H](C)O)C(C)C)[C@@H](C)O [Peptide 56, K(γE-C18diacid)[CNTATC]ATQRLANFLVHSS(Aib)NFGPILPPTNVGSNTY-amide] (H-K([γGlu-C18 diacid])CNTATCATQRLANFLVHSS[Aib]NFGPILPPTNVGSNTY-NH2; disulfide 2-7; N-terminus assumed)
1	71	65	CC[C@H](C)[C@H](NC(=O)[C@@H]1CCCN1C(=O)CNC(=O)[C@H](Cc1ccccc1)NC(=O)[C@H](CC(N)=O)NC(=O)C(C)(C)NC(=O)[C@H](CO)NC(=O)[C@H](CO)NC(=O)[C@H](Cc1c[nH]cn1)NC(=O)[C@@H](NC(=O)[C@H](CC(C)C)NC(=O)[C@H](Cc1ccccc1)NC(=O)[C@H](CC(N)=O)NC(=O)[C@H](C)NC(=O)[C@H](CC(C)C)NC(=O)[C@H](CCCNC(=N)N)NC(=O)[C@H](CCC(N)=O)NC(=O)[C@@H](NC(=O)[C@H](C)NC(=O)[C@@H]1CSSC[C@H](NC(=O)[C@H](CCCCN)NC(=O)[C@@H](N)CCCCNC(=O)CC[C@H](NC(=O)CCCCCCCCCCCCCCCCC(=O)O)C(=O)O)C(=O)N[C@@H](CC(N)=O)C(=O)N[C@@H]([C@@H](C)O)C(=O)N[C@@H](C)C(=O)N[C@@H]([C@@H](C)O)C(=O)N1)[C@@H](C)O)C(C)C)C(=O)N[C@@H](CC(C)C)C(=O)N1CCC[C@H]1C(=O)N1CCC[C@H]1C(=O)N[C@H](C(=O)N[C@@H](CC(N)=O)C(=O)N[C@H](C(=O)NCC(=O)N[C@@H](CO)C(=O)N[C@@H](CC(N)=O)C(=O)N[C@H](C(=O)N1CCC[C@H]1C(N)=O)[C@@H](C)O)C(C)C)[C@@H](C)O [Peptide 58, K(γE-C18diacid)K[CNTATC]ATQRLANFLVHSS(Aib)NFGPILPPTNVGSNTP-amide] (H-K([γGlu-C18 diacid])KCNTATCATQRLANFLVHSS[Aib]NFGPILPPTNVGSNTP-NH2; disulfide 3-8)
